Values after ≈ are worked out from the molar mass of the structure shown.
Assays:
Assay type in all cases: functional
Staphylococcus aureus [1] = assay: Antimicrobial activity against methicillin-resistant Staphylococcus aureus ATCC 33591
Acinetobacter baumannii = assay: Antimicrobial activity against Acinetobacter baumannii ATCC 19606
Staphylococcus aureus [2] = assay: Antimicrobial activity against Staphylococcus aureus ATCC 29213

CCCCCC1NC(=O)/C(=C/c2ccc(F)cc2)O1 (stereo not drawn)
MIC (Staphylococcus aureus [1]): > 128 µg/mL | MIC (Acinetobacter baumannii): > 128 µg/mL | MIC (Staphylococcus aureus [2]): > 128 µg/mL

CN[C@H](CC(C)C)C(=O)N[C@H]1C(=O)N[C@@H](CC(N)=O)C(=O)N[C@H]2C(=O)N[C@H]3C(=O)N[C@H](C(=O)N[C@H](C(=O)O)c4cc(O)cc(O)c4-c4cc3ccc4O)[C@H](O)c3ccc(c(Cl)c3)Oc3cc2cc(c3O[C@@H]2O[C@H](CO)[C@@H](O)[C@H](O)[C@H]2O[C@H]2C[C@](C)(N)[C@H](O)[C@H](C)O2)Oc2ccc(cc2Cl)[C@H]1O [VANCOMYCIN]
MIC (Acinetobacter baumannii): > 128 µg/mL

CCCCCC1NC(=O)/C(=C/c2ccc(OC)cc2)O1 (stereo not drawn)
MIC (Staphylococcus aureus [1]): > 128 µg/mL | MIC (Acinetobacter baumannii): > 128 µg/mL | MIC (Staphylococcus aureus [2]): > 128 µg/mL

COc1c(Br)cc(/C=C2\O[C@H]([C@@H](Cl)CCNC(=N)N)NC2=O)cc1Br
MIC (Staphylococcus aureus [1]): 20 µg/mL (≈ 40.3 µM) | MIC (Acinetobacter baumannii): 100 µg/mL (≈ 201 µM) | MIC (Staphylococcus aureus [2]): 12.5 µg/mL (≈ 25.2 µM)

CCCCCC1NC(=O)/C(=C/c2cc(Br)c(OC)c(Br)c2)O1 (stereo not drawn)
MIC (Staphylococcus aureus [1]): 32 µg/mL (≈ 73.9 µM) | MIC (Acinetobacter baumannii): > 128 µg/mL | MIC (Staphylococcus aureus [2]): 16 µg/mL (≈ 36.9 µM)

CCCCCC1NC(=O)/C(=C/c2ccc([N+](=O)[O-])cc2)O1 (stereo not drawn)
MIC (Staphylococcus aureus [1]): 32 µg/mL (≈ 110 µM) | MIC (Acinetobacter baumannii): > 128 µg/mL | MIC (Staphylococcus aureus [2]): 32 µg/mL (≈ 110 µM)

CCCCCC1NC(=O)/C(=C/c2ccc(C(C)(C)C)cc2)O1 (stereo not drawn)
MIC (Staphylococcus aureus [1]): > 128 µg/mL | MIC (Acinetobacter baumannii): > 128 µg/mL | MIC (Staphylococcus aureus [2]): > 128 µg/mL

CCCCCC1NC(=O)/C(=C/c2ccccc2[N+](=O)[O-])O1 (stereo not drawn)
MIC (Staphylococcus aureus [1]): > 128 µg/mL | MIC (Acinetobacter baumannii): > 128 µg/mL | MIC (Staphylococcus aureus [2]): > 128 µg/mL

CN(C)[C@@H]1C(O)=C(C(N)=O)C(=O)[C@@]2(O)C(O)=C3C(=O)c4c(O)cccc4[C@@](C)(O)[C@H]3C[C@@H]12 [TETRACYCLINE]
MIC (Staphylococcus aureus [1]): 128 µg/mL (≈ 288 µM) | MIC (Acinetobacter baumannii): 2 µg/mL (≈ 4.5 µM) | MIC (Staphylococcus aureus [2]): 0.25 µg/mL (≈ 0.563 µM)

CCCCCC1NC(=O)/C(=C/c2ccc(C)cc2)O1 (stereo not drawn)
MIC (Staphylococcus aureus [1]): > 128 µg/mL | MIC (Acinetobacter baumannii): > 128 µg/mL | MIC (Staphylococcus aureus [2]): 32 µg/mL (≈ 123 µM)

CCCCCC1NC(=O)/C(=C/c2ccccc2)O1 (stereo not drawn)
MIC (Staphylococcus aureus [1]): 128 µg/mL (≈ 522 µM) | MIC (Acinetobacter baumannii): > 128 µg/mL | MIC (Staphylococcus aureus [2]): 64 µg/mL (≈ 261 µM)

CCCCCC1NC(=O)/C(=C/c2ccc(C(F)(F)F)cc2)O1 (stereo not drawn)
MIC (Staphylococcus aureus [1]): 16 µg/mL (≈ 51.1 µM) | MIC (Acinetobacter baumannii): > 128 µg/mL | MIC (Staphylococcus aureus [2]): 16 µg/mL (≈ 51.1 µM)

CC(=O)NC[C@H]1CN(c2ccc(N3CCOCC3)c(F)c2)C(=O)O1 [LINEZOLID]
MIC (Staphylococcus aureus [1]): 1 µg/mL (≈ 2.96 µM) | MIC (Acinetobacter baumannii): > 128 µg/mL | MIC (Staphylococcus aureus [2]): 0.5 µg/mL (≈ 1.48 µM)

CCCCCC1NC(=O)/C(=C/c2ccc(Cl)cc2)O1 (stereo not drawn)
MIC (Staphylococcus aureus [1]): > 128 µg/mL | MIC (Acinetobacter baumannii): > 128 µg/mL | MIC (Staphylococcus aureus [2]): > 128 µg/mL

COc1c(Br)cc(/C=C2\O[C@H](CCCNC(=N)N)NC2=O)cc1Br
MIC (Staphylococcus aureus [1]): 32 µg/mL (≈ 69.2 µM) | MIC (Acinetobacter baumannii): > 128 µg/mL | MIC (Staphylococcus aureus [2]): 32 µg/mL (≈ 69.2 µM)

Source: ChEMBL document CHEMBL3627600, “Rapid synthesis and antimicrobial activity of novel 4-oxazolidinone heterocycles” (2015)
